Test results from US8598132B2, “Glycosylated indolocarbazoles, method for obtaining same and uses thereof” (Universidad de Oviedo, priority 2008, dated 2013).

Experiments:
[1] = target: T1, PDK1 (Homo sapiens, UniProt O15530); assay: LabChip (Caliper) kinase assay, PDK1; format: biochemical; conditions: read-out: remaining kinase activity (in %) / percentage of inhibition; for inhibition at 0.01 µM: compound at 10 nM; for inhibition at 0.1 µM: compound at 100 nM
T1 sequence (O15530 1-556): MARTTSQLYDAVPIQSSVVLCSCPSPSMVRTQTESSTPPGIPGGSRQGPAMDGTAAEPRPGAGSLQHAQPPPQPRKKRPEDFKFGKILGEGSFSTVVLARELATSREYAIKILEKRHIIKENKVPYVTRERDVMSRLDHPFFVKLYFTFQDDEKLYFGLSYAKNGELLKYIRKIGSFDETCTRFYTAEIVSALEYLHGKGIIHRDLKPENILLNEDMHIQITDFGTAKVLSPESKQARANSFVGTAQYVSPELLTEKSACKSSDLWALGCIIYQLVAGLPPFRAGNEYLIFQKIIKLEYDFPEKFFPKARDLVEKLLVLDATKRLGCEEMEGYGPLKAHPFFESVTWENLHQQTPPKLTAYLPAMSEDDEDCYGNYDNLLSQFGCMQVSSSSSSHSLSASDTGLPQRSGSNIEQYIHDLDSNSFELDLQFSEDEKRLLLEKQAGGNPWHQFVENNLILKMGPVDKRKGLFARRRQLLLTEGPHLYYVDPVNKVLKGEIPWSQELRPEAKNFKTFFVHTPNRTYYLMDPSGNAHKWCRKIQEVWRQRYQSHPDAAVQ
Experimental: (§1) The analysis of kinase activity described here was performed using LabChip (Caliper Life Sciences), specifically the Caliper LC3000 and the EZ Reader II instruments.
(§2) The kinase assay used measures the conversion of a fluorescent peptide (substrate) to a phosphorylated product. The reaction mixture, in a microplate well, is introduced by a capillary in a chip where the non-phosphorylated substrate and the phosphorylated product are separated by […]. The intensity of the fluorescent signal over time is related to the reaction progress. The phosphorylated product migrates quicker than the non-phosphorylated substrate and the signals of the two forms of the peptide appear as differentiated peaks. The Caliper determines the peak height and calculates the ratio of product to the peak sum (P/(P+S)). This value is used to compare wells with compounds and wells with controls and thus determine the % of inhibition for the given product.
(§3) The followings kinases were used for the enzymatic inhibition studies, between brackets the value of the Michaelis-Menten constant, Km, of the ATP (Adenosine triphosphate) for each kinase, in μM: obtained from Carna Biosciences: MAPKAPK2 (4.6), AurA (3.6), AurB (5), PKCζ (3.8), RSK1 (23.3), PRAK (5), Erk1 (33.4), PKD2 (32.1), CK1d (16.3), CHK1 (33), ABL (61.7), FYN (36), LYNa (17), CHK2 (57.8), MET (79.5), LCK (28.5), SRC (38), GSK3β (7.3), Erk2 (62.1), PKACα (1.7), AKT2 (186.1), INSR (871.8), p38a (396.5), AKT1(48), MSK1 (21.2), PKCβ2 (84.8), ROCK2 (3.3), PIM2 (4.9), AMPK (38.6), KDR (164.8), IRAK4 (196.5), SGK1 (121.8), SYK (33.5); obtained from Invitrogen: CDK2 (57.6), BTK (123), HGK (80); obtained from Upstate: MST2 (36.6), PKGα (16), PAK2 (1.9), IGF1R (320), FGFR1 (171), MARK1 (33), CAMK2δ (22.4), c-TAK1 (66), DYRK1a (18.1), CaMK4 (3.9), FLT3 (350), c-Raf (6.2), P70S6K (95).
(§4) The compounds were dissolved in 100% DMSO and were diluted at 25 times the final concentration desired for the assay. In the case of the determination of Cl50, serial dilutions were made to reach eight concentrations and give rise to the inhibition curve. 1 μL of each concentration is transferred, in duplicate to a 384-well microplate. 12 μL of enzymatic buffer is added to each well containing purified kinase (several suppliers as indicated above), 100 mM HEPES, pH 7.5, 1 mM DTT (Calbiochem), 0.002% Brij-35 (Sigma) and also in presence of 10 mM MgCl2 as cofactor, except for INSR and IRAK4 wherein 10 mM MnCl2 is used instead of MgCl2. For the kinases CAMK26 and CAMK4, 1 mM CaCl2 and 6.7 μg/mL of calmodulin are also added. For KDR kinase, 0.05% of the CHAPSO detergent is added. For the c-Raf kinase, 10 mM MnCl2 is added. For PKCβ2 0.02 μg/mL of PS/PMA is added. For PKGα se 10 μM of cGMP (cyclic guanosine monophosphate) is added. The compound and the enzyme are left for 15 minutes preincubation and, then, the following are added to each well: 12 μL of peptide buffer/ATP containing 100 mM HEPES, pH 7.5, 1.5 μM peptide marker with fluorescein (specific for the corresponding kinase), ATP (at concentration KM), and 0.002% Brij-35 to start the reaction. Generally, the reactions are incubated for 1-1.5 h at ambient temperature to obtain an adequate conversion (15-40%) of the peptide to the phosphorylated product. The reactions were ended by the addition of 45 μL of buffer containing 0 mM EDTA. The microplates were read by the LabChip 3000 using a 12-channel LabChip. The P/(P+S) values were obtained as described above and the CI50 curves were generated using XIfit.
For example, the activity of the Dyrk1a kinase is inhibited in 87% by the compound of formula (III) and completely by the compound of formula (XII) when used at a concentration of 10 nM.

[2] = target: T2, HGK (Homo sapiens, UniProt O95819); assay: LabChip (Caliper) kinase assay, HGK; format: biochemical; conditions: for inhibition at 0.01 µM: compound at 10 nM; for inhibition at 0.01 µM / inhibition at 0.1 µM: read-out: remaining kinase activity (in %) / percentage of inhibition; for inhibition at 0.1 µM: compound at 100 nM; for IC50: ATP at Km, read-out: CI50 (the source's name)
T2 construct: purchased Invitrogen
T2 sequence (O95819 whole entry, species assumed): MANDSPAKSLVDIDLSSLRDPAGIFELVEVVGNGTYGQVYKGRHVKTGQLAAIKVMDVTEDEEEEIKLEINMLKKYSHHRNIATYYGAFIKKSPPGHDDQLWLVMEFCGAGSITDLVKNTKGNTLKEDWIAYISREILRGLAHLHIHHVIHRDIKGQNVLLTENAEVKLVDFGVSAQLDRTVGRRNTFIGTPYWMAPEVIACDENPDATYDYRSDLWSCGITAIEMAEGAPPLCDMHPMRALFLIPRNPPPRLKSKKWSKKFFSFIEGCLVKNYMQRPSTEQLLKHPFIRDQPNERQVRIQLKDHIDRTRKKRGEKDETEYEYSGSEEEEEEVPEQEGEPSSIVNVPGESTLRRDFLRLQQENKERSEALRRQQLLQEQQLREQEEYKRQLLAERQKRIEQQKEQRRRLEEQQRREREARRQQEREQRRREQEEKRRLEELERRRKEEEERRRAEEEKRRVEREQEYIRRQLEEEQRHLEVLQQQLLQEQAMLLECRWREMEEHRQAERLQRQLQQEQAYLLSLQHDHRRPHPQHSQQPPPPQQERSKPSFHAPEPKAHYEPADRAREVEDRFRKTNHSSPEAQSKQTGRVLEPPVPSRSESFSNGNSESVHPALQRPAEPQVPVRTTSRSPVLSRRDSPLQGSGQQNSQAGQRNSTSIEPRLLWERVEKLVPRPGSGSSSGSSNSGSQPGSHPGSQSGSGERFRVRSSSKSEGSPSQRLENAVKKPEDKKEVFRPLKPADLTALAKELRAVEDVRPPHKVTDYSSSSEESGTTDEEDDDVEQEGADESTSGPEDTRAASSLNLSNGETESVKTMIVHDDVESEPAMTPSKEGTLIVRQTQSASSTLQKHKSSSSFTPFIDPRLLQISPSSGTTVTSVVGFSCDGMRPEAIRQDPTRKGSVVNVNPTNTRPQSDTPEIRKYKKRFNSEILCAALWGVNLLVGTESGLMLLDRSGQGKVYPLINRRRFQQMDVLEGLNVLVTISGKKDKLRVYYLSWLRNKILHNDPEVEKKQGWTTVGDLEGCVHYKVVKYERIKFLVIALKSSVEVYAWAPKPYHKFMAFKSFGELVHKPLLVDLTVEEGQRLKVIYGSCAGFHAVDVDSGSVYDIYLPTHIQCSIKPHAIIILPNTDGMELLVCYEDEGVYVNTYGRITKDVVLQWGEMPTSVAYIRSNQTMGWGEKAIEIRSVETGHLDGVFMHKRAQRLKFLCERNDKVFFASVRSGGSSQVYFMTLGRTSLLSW
Experimental: as §1, §2, §3, §4
Table 9a has the 0150 data obtained in pairs of compound-kinase selected from the compounds of formula (VII), (VIII), (IX), (XVI), (XVII) and (XVIII) after taking inhibition measurements at 100 nM and 10 nM. Those couples that provide >70% of inhibition at 10 nM were consider for measuring its IC50. […]

SMILES	inhibition at 0.01 µM [1]	inhibition at 0.1 µM [1]	inhibition at 0.01 µM [2]	inhibition at 0.1 µM [2]	IC50 [2]
C[C@@H]1O[C@@H](n2c3ccccc3c3c4c(c5c6ccccc6[nH]c5c32)C(=O)NC4=O)C[C@H](O)[C@H]1O [formula (IV), N^13-1′-β-L-olivosylarcyriaflavin]	7%	71%	9%	62%	–
C[C@H]1O[C@@H](n2c3ccccc3c3c4c(c5c6ccccc6[nH]c5c32)CNC4=O)C[C@@H](O)[C@@H]1O [formula (XV), N^13-1′-β-D-olivosyl-k252c]	3%	81%	36%	89%	–
C[C@]12O[C@H](C[C@@H](O)[C@H]1O)n1c3ccccc3c3c4c(c5c6ccccc6n2c5c31)CNC4=O [formula (XVIII), N^12-5′(S)-N^13-1′-(R)-L-digitoxosyl-k252c]	–	–	–	–	> 10 nM
C[C@@H]1O[C@@H](n2c3ccccc3c3c4c(c5c6ccccc6[nH]c5c32)CNC4=O)[C@H](O)[C@H](O)[C@H]1O [formula (XII), N^13-1′-β-L-rhamnosyl-k252c]	-10%	15%	44%	91%	–
C[C@@H]1O[C@@H](n2c3ccccc3c3c4c(c5c6ccccc6[nH]c5c32)CNC4=O)C[C@@H](O)[C@H]1O [formula (XIV), N^13-1′-β-L-digitoxosyl-k252c]	30%	94%	20%	78%	–
C[C@]12O[C@H](C[C@@H](O)[C@H]1O)n1c3ccccc3c3c4c(c5c6ccccc6n2c5c31)C(=O)NC4=O [formula (IX), N^12-5′(S)-N^13-1′-(R)-L-digitoxosylarcyriaflavin]	–	–	–	–	> 10 nM
C[C@@H]1O[C@@H](n2c3ccccc3c3c4c(c5c6ccccc6[nH]c5c32)CNC4=O)C[C@H](O)[C@H]1O [formula (XIII), N^13-1′-β-L-olivosyl-k252c]	9%	81%	16%	76%	–
C[C@]12O[C@H]([C@H](O)[C@H](O)[C@H]1O)n1c3ccccc3c3c4c(c5c6ccccc6n2c5c31)C(=O)NC4=O [formula (VII), N^12-5′(S)-N^13-1′-(R)-L-rhamnosylarcyriaflavin]	–	–	–	–	0.78 nM
C[C@@H]1O[C@@H](n2c3ccccc3c3c4c(c5c6ccccc6[nH]c5c32)C(=O)NC4=O)C[C@@H](O)[C@H]1O [formula (V), N^13-1′-β-L-digitoxosylarcyriaflavin]	61%	97%	54%	90%	–
C[C@@H]1O[C@@H](n2c3ccccc3c3c4c(c5c6ccccc6[nH]c5c32)C(=O)NC4=O)[C@H](O)[C@H](O)[C@H]1O [formula (III), N^13-1′-β-L-rhamnosylarcyriaflavin]	-6%	46%	30%	89%	–
C[C@H]1O[C@@H](n2c3ccccc3c3c4c(c5c6ccccc6[nH]c5c32)C(=O)NC4=O)C[C@@H](O)[C@@H]1O [formula (VI), N^13-1′-β-D-olivosylarcyriaflavin]	21%	76%	35%	83%	–
